In EP0209275B1, “Benz-trisubstituted 2-aminotetralins” (SMITHKLINE BECKMAN CORPORATION, priority 1985, dated 1987):
Where two headings read alike, the source gives them in different places.

Columns and labels:
D2 receptors = molecular target: T1, D2 receptors (Bos taurus, UniProt P20288); assay: D2 activity - competition for 3H-spiroperidol binding in bovine anterior pituitary membranes; conditions: for Kb: competition with 3H-spiroperidol (approximately .25 nM), bovine anterior pituitary membranes, figure in parentheses = number of tests, read-out: D2 (KBind, KB); for D2 to D1 ratios: selectivity ratio from the D1 and D2 binding data of Tables I and II, n to 1 = D2 selective, 1 to n = D1 selective
T1 construct: homogenized and washed membrane preparations from bovine anterior pituitary; from tissue; host or cells: bovine anterior pituitary membranes
Protocol: A) D2 Activity - Competition for ^3H-Spiroperidol in Bovine Anterior Pituitary Tissue. Test Procedure
The assay was performed using homogenized and washed membrane preparations from bovine anterior pituitary. Incubation proceeded for 20 minutes at 37° in 50 mM Tris-HCI, pH 7.4, containing 10 mM magnesium sulfate, 2 mM ethylenediamine tetra-acetic acid and 0.1 % ascorbate. The membrane- bound radioactivity was trapped by rapid filtration over glass fiber (GF/C) filters. In each experiment, the amount of ^3H-spiroperidol bound was determined in the absence (total) and presence (non-specific) of 10^-6M (+)-butaclamol, the difference yielding specific ^3H-spiroperidol binding. The ability of each compound to compete with ^3H-spiroperidol (approximately .25 nM) was tested at concentrations of 10-^7 and 10-^5.

D1 receptors = molecular target: T2, D1 receptors (Rattus norvegicus, UniProt P18901); assay: D1 activity - competition for 3H-fenoldopam binding in rat striatum (caudate) membranes
T2 construct: homogenized and washed membrane preparations from rat caudate nuclei; from tissue; host or cells: rat caudate nuclei (striatum) membranes
Protocol: B) D1 Activity - Competition for ^3H-Fenoldopam in Rat Striatum Tissue. Test Procedure
The assay was performed using homogenized and washed membrane preparations from rat caudate nuclei. Tissues were preincubated for 15 min at 37° in 50 mM Tris-HCI, pH 7.4, 10 mM magnesium sulfate, 2 mM ethylenediamine tetra-acetic acid and 0.1 % ascorbate. The binding assay was then carried out in the above buffer also containing 10 µm pargyline, ^3H-fenoldopam and test compounds. The membrane- bound radioactivity was trapped by rapid filtration over glass fiber (GF/C) filters. In each experiment the amount of ^3H-fenoldopam bound was determined in the absence (total) and presence (non-specific) of 10^-6M (+)-butaclamol, the difference yielding specific ^3H-fenoldopam binding. The ability of each compound to compete with ^3H-fenoldopam (approximately 2.0 nM) was tested at concentrations of 10-^7 and 10^-6M.

[1] = tested on: spontaneous hypertensive rat; assay: Natriuretic activity in the spontaneous hypertensive rat protocol; format: in vivo; conditions: at a hypotensive dose (Compound G: 3.12 mg/kg i.p.)
a2 = assay: Clonidine binding protocol (a2 activity)
rabbit ear artery = assay: Standard rabbit ear artery protocol for pre-junctional dopaminergic activity; conditions: ED50 for Compound D
[2] = competition with 3H-fenoldopam (approximately 2.0 nM), rat caudate membranes, figure in parentheses = number of tests, read-out: D1 (KBind, KB)

T1 sequence (P20288 whole entry): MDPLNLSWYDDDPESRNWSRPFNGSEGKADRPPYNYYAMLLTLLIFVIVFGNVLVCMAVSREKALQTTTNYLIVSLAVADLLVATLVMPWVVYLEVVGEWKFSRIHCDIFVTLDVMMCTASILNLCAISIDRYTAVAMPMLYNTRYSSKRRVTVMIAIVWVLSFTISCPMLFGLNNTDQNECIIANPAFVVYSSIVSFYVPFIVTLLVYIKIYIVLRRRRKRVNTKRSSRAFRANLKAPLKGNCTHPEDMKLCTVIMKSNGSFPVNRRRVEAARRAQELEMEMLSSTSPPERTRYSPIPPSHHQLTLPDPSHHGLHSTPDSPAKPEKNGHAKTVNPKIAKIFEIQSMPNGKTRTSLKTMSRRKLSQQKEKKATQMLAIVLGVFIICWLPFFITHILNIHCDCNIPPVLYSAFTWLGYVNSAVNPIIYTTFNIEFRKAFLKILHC
T2 sequence (P18901 whole entry): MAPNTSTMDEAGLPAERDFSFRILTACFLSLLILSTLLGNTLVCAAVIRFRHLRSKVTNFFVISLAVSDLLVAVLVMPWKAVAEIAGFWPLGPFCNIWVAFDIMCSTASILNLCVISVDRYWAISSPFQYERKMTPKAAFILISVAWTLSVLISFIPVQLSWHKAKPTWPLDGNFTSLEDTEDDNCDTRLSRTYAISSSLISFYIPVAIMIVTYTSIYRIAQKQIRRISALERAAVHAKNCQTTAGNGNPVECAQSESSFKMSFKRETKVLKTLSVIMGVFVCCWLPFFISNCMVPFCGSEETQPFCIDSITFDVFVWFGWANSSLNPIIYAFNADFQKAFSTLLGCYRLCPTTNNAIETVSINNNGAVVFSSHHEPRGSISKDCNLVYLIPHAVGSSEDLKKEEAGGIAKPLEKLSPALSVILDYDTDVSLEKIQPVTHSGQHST

SMILES | Kb (D2 receptors) | Kb (D1 receptors; [2]) | D2 to D1 ratios (D2 receptors) | natriuretic activity [1] | a2 activity (a2) | EC50 (rabbit ear artery) | Kb (D1 receptors)
CCCN(CCc1ccc(O)cc1)C1CCc2cc(O)c(O)c(Cl)c2C1 (stereo not shown) [A, 8-Chloro-6,7-dihydroxy-2-[N-(n-propyl)-N-(4-hydroxyphenethyl)-amino] tetralin] | 33 nM | 270 nM |  |  |  |  | 
NC1CCc2cc(O)c(O)cc2C1 (stereo not shown) [ADTN, 6,7-Dihydroxy-2-aminotetralin, reference compound] |  |  | 1 to 3 | inactive | demonstrated a2 activity |  | 
Oc1ccc(CCNC2CCc3cc(O)c(O)c(Cl)c3C2)cc1 (stereo not shown) [B, 8-Chloro-6,7-dihydroxy-2-(4-hydroxyphenethylamino)tetralin] | 405 nM | 1450 nM |  |  |  |  | 
CCCN(CCC)C1CCc2cc(O)c(O)c(Cl)c2C1 (stereo not shown) [C, 8-Chloro-6,7-dihydroxy-2-di-n-propyl aminotetralin] | 240 nM | 620 nM |  |  |  |  | 
NC1CCc2c(cc(O)c(O)c2F)C1 (stereo not shown) [Compound D, 5-Fluoro-6,7-dihydroxy-2-aminotetralin] | 520 nM | 72 nM | 1 to 7 |  | demonstrated a2 activity | 2.14 nM | 
NC1CCc2cc(O)c(O)c(F)c2C1 (stereo not shown) [Compound E, 8-Fluoro-6,7-dihydroxy-2-aminotetralin] | 1270 nM | 62 nM | 1 to 27 |  | demonstrated a2 activity | 5 nM | 
NC1CCc2c(cc(O)c(O)c2Cl)C1 (stereo not shown) [Compound F, 5-Chloro-6,7-dihydroxy-2-aminotetralin] | 470 nM | 640 nM |  |  | demonstrated a2 activity | 50 nM | 
NC1CCc2cc(O)c(O)c(Cl)c2C1 (stereo not shown) [Compound G, 8-Chloro-6,7-dihydroxy-2-aminotetralin] | 3160 nM |  | 1 to 80 | potent natriuretic activity | demonstrated a2 activity | 513 nM | 43 nM
NC1CCc2cc(F)c(O)cc2C1 (stereo not shown) [L, reference compound] | 660 nM | 370 nM |  |  |  |  | 
CCCN(CCC)C1CCc2cc(Cl)c(O)cc2C1 (stereo not shown) [M, reference compound] | 1630 nM | 4710 nM |  |  |  |  | 
NC1CCc2cc(O)c(Cl)cc2C1 (stereo not shown) [N, reference compound] | 4470 nM | 1970 nM |  |  |  |  | 
NC1CCc2c(ccc(O)c2Cl)C1 (stereo not shown) [O, reference compound] | 11600 nM | > 10000 nM |  |  |  |  | 
